Results taken from ChEMBL document CHEMBL1909046, “DrugMatrix in vitro pharmacology data”.

Legend:
[1] = target: T1, C-X-C chemokine receptor type 2 (Homo sapiens, UniProt P25025); format: cell membranes, Membrane; conditions: cho-k1; note: in other assays of this panel Not Active means under 50% inhibition at 10 µM
T1 sequence (P25025 whole entry): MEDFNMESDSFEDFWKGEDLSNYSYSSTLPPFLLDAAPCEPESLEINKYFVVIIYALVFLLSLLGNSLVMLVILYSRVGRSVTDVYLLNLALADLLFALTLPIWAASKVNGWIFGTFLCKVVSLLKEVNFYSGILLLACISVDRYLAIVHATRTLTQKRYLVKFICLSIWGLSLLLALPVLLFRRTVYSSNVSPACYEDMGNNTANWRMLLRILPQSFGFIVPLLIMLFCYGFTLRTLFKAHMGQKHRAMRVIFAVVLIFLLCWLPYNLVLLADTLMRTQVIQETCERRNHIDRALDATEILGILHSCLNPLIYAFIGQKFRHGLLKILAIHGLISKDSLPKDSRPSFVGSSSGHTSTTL

[2] = target: cGMP-specific 3',5'-cyclic phosphodiesterase (Homo sapiens, UniProt O76074); assay: DRUGMATRIX: Phosphodiesterase PDE5 enzyme inhibition (substrate: [3H]cGMP + cGMP); format: tissue-based; conditions: platelet; Not Active = under 50% inhibition at 10 µM
[3] = target: Delta-type opioid receptor (Homo sapiens, UniProt P41143); format: cell membranes, HEK293, Membrane; conditions: hek293; note: in other assays of this panel Not Active means under 50% inhibition at 10 µM
Sequence of Delta-type opioid receptor (P41143 whole entry): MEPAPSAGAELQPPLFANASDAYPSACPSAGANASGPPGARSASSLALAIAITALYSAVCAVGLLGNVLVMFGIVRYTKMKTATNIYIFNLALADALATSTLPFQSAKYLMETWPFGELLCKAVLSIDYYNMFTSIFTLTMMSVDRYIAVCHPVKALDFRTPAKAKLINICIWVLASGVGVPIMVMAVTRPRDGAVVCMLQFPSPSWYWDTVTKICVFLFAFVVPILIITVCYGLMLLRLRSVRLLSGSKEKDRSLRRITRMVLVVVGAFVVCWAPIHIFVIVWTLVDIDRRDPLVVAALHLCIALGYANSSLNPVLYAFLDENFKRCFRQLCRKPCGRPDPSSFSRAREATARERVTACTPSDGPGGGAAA

[4] = DRUGMATRIX: Atrial Natriuretic Factor (ANF) radioligand binding (ligand: [125I] ANF (rat)); format: cell membranes, Cavia porcellus, Dunkin-Hartley, Adrenal gland, Membrane; conditions: Not Active = under 50% inhibition at 10 µM
Progesterone receptor = target: T2, Progesterone receptor (Bos taurus, UniProt Q690N0); assay: DRUGMATRIX: Progesterone radioligand binding (ligand: [3H] R-5020); format: tissue-based, Uterus; conditions: Not Active = under 50% inhibition at 10 µM
T2 sequence (Q690N0 whole entry): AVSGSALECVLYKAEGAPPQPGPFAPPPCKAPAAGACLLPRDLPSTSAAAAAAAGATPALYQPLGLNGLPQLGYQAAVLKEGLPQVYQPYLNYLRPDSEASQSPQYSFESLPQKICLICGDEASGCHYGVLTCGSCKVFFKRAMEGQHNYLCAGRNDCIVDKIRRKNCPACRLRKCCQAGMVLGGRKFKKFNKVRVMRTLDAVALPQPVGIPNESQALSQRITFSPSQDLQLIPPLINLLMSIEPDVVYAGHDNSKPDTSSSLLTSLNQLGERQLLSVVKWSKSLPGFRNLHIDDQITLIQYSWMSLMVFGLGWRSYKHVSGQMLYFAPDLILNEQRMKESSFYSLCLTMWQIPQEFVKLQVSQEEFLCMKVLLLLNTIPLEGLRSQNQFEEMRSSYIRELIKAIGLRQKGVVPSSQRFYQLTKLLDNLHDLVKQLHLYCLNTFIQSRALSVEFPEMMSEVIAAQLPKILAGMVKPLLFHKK

[5] = DRUGMATRIX: GABAA, Chloride Channel, TBOB radioligand binding (ligand: [3H] TBOB); format: cell membranes, Rattus norvegicus, Wistar, Cerebral cortex, Membrane; conditions: Not Active = under 50% inhibition at 10 µM
[6] = DRUGMATRIX: Serotonin (5-Hydroxytryptamine) 5-HT3 radioligand binding (ligand: [3H] GR-65630); format: cell membranes, Membrane; conditions: hek293, Not Active = under 50% inhibition at 10 µM
Melanocortin receptor 3 = Melanocortin receptor 3 (Homo sapiens, UniProt P41968); format: cell membranes, Membrane; conditions: hek293; note: in other assays of this panel Not Active means under 50% inhibition at 10 µM
Sequence of Melanocortin receptor 3 (P41968 whole entry): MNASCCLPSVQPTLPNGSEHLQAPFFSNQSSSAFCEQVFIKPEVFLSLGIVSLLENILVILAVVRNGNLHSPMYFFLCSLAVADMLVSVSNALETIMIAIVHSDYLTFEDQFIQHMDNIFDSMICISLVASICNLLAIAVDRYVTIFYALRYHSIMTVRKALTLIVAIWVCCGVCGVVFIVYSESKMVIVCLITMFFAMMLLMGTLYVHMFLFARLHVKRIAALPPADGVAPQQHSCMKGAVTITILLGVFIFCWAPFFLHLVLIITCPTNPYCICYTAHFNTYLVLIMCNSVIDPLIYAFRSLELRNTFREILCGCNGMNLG

C[C@](O)(CS(=O)(=O)c1ccc(F)cc1)C(=O)Nc1ccc(C#N)c(C(F)(F)F)c1 [(R)-BICALUTAMIDE]
Not Active: IC50 [1] | IC50 [2] | IC50 [3] | IC50 [4] | Ki [4] | IC50 (Progesterone receptor) | IC50 [5] | Ki [5] | IC50 [6] | Ki [6] | IC50 (Melanocortin receptor 3)

Cc1nccn1CC1CCc2c(c3ccccc3n2C)C1=O (stereo not given) [ONDANSETRON]
0.00929 µM: IC50 ([6]; read-out: IC50)
Not Active: IC50 [1] | IC50 [2] | IC50 [3] | IC50 [4] | Ki [4] | IC50 (Progesterone receptor) | IC50 [5] | Ki [5] | IC50 (Melanocortin receptor 3)
0.00209 µM: Ki ([6]; read-out: Ki)

CCOC(=O)[C@H](CCc1ccccc1)N[C@H]1CCc2ccccc2N(CC(=O)O)C1=O [BENAZEPRIL]
Not Active: IC50 [1] | IC50 [2] | IC50 [3] | IC50 [4] | Ki [4] | IC50 (Progesterone receptor) | IC50 [5] | Ki [5] | IC50 [6] | Ki [6] | IC50 (Melanocortin receptor 3)

COc1cccc2c1C(=O)c1c(O)c3c(c(O)c1C2=O)C[C@@](O)(C(=O)CO)C[C@@H]3O[C@H]1C[C@H](N)[C@H](O)[C@H](C)O1 [DOXORUBICIN]
Not Active: IC50 [1] | IC50 [2] | IC50 [3] | IC50 [4] | Ki [4] | IC50 (Progesterone receptor) | IC50 [5] | Ki [5] | IC50 [6] | Ki [6] | IC50 (Melanocortin receptor 3)

C[C@H]1C[C@H]2[C@@H]3CCC4=CC(=O)C=C[C@]4(C)[C@@]3(Cl)[C@@H](O)C[C@]2(C)[C@@]1(O)C(=O)CO [BECLOMETHASONE]
Not Active: IC50 [1] | IC50 [2] | IC50 [3] | IC50 [4] | Ki [4] | IC50 (Progesterone receptor) | IC50 [5] | Ki [5] | IC50 [6] | Ki [6] | IC50 (Melanocortin receptor 3)

CCN(CC)CCOC(=O)c1ccc(N)cc1 [PROCAINE]
Not Active: IC50 [1] | IC50 [2] | IC50 [3] | IC50 [4] | Ki [4] | IC50 (Progesterone receptor) | IC50 [5] | Ki [5] | IC50 [6] | Ki [6] | IC50 (Melanocortin receptor 3)

O=C(O)Cc1ccccc1Nc1c(Cl)cccc1Cl [DICLOFENAC]
Not Active: IC50 [1] | IC50 [2] | IC50 [3] | IC50 [4] | Ki [4] | IC50 (Progesterone receptor) | IC50 [5] | Ki [5] | IC50 [6] | Ki [6] | IC50 (Melanocortin receptor 3)

CC(C)[C@H]1CC[C@H](C(=O)N[C@H](Cc2ccccc2)C(=O)O)CC1 [NATEGLINIDE]
Not Active: IC50 [1] | IC50 [2] | IC50 [3] | IC50 [4] | Ki [4] | IC50 (Progesterone receptor) | IC50 [5] | Ki [5] | IC50 [6] | Ki [6] | IC50 (Melanocortin receptor 3)

Nc1c(CC(=O)O)cccc1C(=O)c1ccc(Br)cc1 [BROMFENAC]
Not Active: IC50 [1] | IC50 [2] | IC50 [3] | IC50 [4] | Ki [4] | IC50 (Progesterone receptor) | IC50 [5] | Ki [5] | IC50 [6] | Ki [6] | IC50 (Melanocortin receptor 3)

CC(=O)Nc1cccc(O)c1 [METACETAMOL]
Not Active: IC50 [1] | IC50 [2] | IC50 [3] | IC50 [4] | Ki [4] | IC50 (Progesterone receptor) | IC50 [5] | Ki [5] | IC50 [6] | Ki [6] | IC50 (Melanocortin receptor 3)

CCn1cc(C(=O)O)c(=O)c2cc(F)c(N3CCN(C)CC3)cc21 [PEFLOXACIN]
Not Active: IC50 [1] | IC50 [2] | IC50 [3] | IC50 [4] | Ki [4] | IC50 (Progesterone receptor) | IC50 [5] | Ki [5] | IC50 [6] | Ki [6] | IC50 (Melanocortin receptor 3)

COc1ccc2c(c1)c(CC(=O)O)c(C)n2C(=O)c1ccc(Cl)cc1 [INDOMETHACIN]
Not Active: IC50 [1] | IC50 [2] | IC50 [3] | IC50 [4] | Ki [4] | IC50 (Progesterone receptor) | IC50 [5] | Ki [5] | IC50 [6] | Ki [6] | IC50 (Melanocortin receptor 3)

C[C@H]1O[C@@H](O[C@H]2[C@@H](O)C[C@H](O[C@H]3[C@@H](O)C[C@H](O[C@H]4CC[C@@]5(C)[C@H](CC[C@@H]6[C@@H]5CC[C@]5(C)[C@@H](C7=CC(=O)OC7)CC[C@]65O)C4)O[C@@H]3C)O[C@@H]2C)C[C@H](O)[C@@H]1O [DIGITOXIN]
Not Active: IC50 [1] | IC50 [2] | IC50 [3] | IC50 [4] | Ki [4] | IC50 (Progesterone receptor) | IC50 [5] | Ki [5] | IC50 [6] | Ki [6] | IC50 (Melanocortin receptor 3)

S=C=Nc1cccc2ccccc12 [1-NAPHTHYLISOTHIOCYANATE]
Not Active: IC50 [1] | IC50 [2] | IC50 [3] | IC50 [4] | Ki [4] | IC50 (Progesterone receptor) | IC50 [5] | Ki [5] | IC50 [6] | Ki [6] | IC50 (Melanocortin receptor 3)

C[C@]12CC[C@@H]3c4ccc(O)cc4CC[C@H]3[C@@H]1CC[C@@H]2O [ESTRADIOL]
32.6 µM: IC50 (Progesterone receptor; read-out: IC50)
4.25 µM: Ki (Progesterone receptor; read-out: Ki)
Not Active: IC50 [1] | IC50 [2] | IC50 [3] | IC50 [4] | Ki [4] | IC50 [5] | Ki [5] | IC50 [6] | Ki [6] | IC50 (Melanocortin receptor 3)

CCOC(=O)C1=C(C)NC(C)=C(C(=O)OC)C1c1cccc([N+](=O)[O-])c1 (stereo not given) [NITRENDIPINE]
Not Active: IC50 [1] | IC50 [2] | IC50 [3] | IC50 [4] | Ki [4] | IC50 (Progesterone receptor) | IC50 [5] | Ki [5] | IC50 [6] | Ki [6] | IC50 (Melanocortin receptor 3)

CC1=C(C(=O)O)N2C(=O)[C@@H](NC(=O)[C@H](N)c3ccccc3)[C@H]2SC1 [CEPHALEXIN ANHYDROUS]
Not Active: IC50 [1] | IC50 [2] | IC50 [3] | IC50 [4] | Ki [4] | IC50 (Progesterone receptor) | IC50 [5] | Ki [5] | IC50 [6] | Ki [6] | IC50 (Melanocortin receptor 3)

CN(C)/N=N/c1[nH]cnc1C(N)=O [DACARBAZINE]
Not Active: IC50 [1] | IC50 [2] | IC50 [3] | IC50 [4] | Ki [4] | IC50 (Progesterone receptor) | IC50 [5] | Ki [5] | IC50 [6] | Ki [6] | IC50 (Melanocortin receptor 3)

COc1ccc2c(c1)[C@]13CCCC[C@@H]1[C@H](C2)N(C)CC3 [DEXTROMETHORPHAN]
Not Active: IC50 [1] | IC50 [2] | IC50 [3] | IC50 [4] | Ki [4] | IC50 (Progesterone receptor) | IC50 [5] | Ki [5] | IC50 [6] | Ki [6] | IC50 (Melanocortin receptor 3)
